Assay results from patent publication US8258134B2, “Pyridazinone glucokinase activators” (Hoffmann-La Roche Inc., priority 2008, dated 2012).

Biological target: T1, Recombinant human liver GK1 (GST-GK) (Homo sapiens, UniProt P35557)
T1 construct: made in house; host or cells: E. coli
T1 sequence (P35557 1-466 isoform P35557-2): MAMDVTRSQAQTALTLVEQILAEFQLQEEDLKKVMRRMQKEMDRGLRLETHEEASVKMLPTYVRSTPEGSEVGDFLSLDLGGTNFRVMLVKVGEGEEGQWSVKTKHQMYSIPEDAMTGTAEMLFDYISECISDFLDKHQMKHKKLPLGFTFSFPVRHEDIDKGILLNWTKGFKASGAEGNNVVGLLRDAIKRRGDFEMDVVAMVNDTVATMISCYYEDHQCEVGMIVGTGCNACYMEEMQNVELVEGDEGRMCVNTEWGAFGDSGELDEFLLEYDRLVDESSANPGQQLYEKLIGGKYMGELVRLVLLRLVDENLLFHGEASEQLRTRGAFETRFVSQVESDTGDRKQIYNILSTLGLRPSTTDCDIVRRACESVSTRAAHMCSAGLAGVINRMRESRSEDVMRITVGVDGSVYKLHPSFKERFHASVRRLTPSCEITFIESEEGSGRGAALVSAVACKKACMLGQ
Test: Glucokinase in vitro assay (G6PDH-coupled NADH generation, OD340)
Assay type: biochemical
Conditions: 5 mM D-glucose, 30° C., pH 7.1, 10% DMSO
Summary of the method: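 Activation readout is SC1.5, the activator concentration raising GK rate (OD340/min) 50% above 10% DMSO controls. The coupled reaction used GST-GK1 from E. coli, 5 mM glucose, 1 mM ATP, 1.8 mM NAD and 25 mM Hepes pH 7.1 at 30° C. Enzyme was added after a 10 min compound pre-incubation.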

In order of rising “SC1.5 average (concentration of activator that produced a 50% increase in the activity of GK)” value:
1. CC(=O)c1ccccc1Oc1cnn(C(CC2CCCC2)C(=O)Nc2ccn(CC(C)(C)O)n2)c(=O)c1 (stereo not shown) [Example 40, 2-[4-(2-Acetyl-phenoxy)-6-oxo-6H-pyridazin-1-yl]-3-cyclopentyl-N-[1-(2-hydroxy-2-methyl-propyl)-1H-pyrazol-3-yl]-propionamide]  0.228 µM
2. COc1ccc(Oc2cnn(C(CC3CCCCC3)C(=O)Nc3ccn(CC(C)(C)O)n3)c(=O)c2)c(Cl)c1 (stereo not shown) [Example 118, 2-[4-(2-Chloro-4-methoxy-phenoxy)-6-oxo-6H-pyridazin-1-yl]-3-cyclohexyl-N-[1-(2-hydroxy-2-methyl-propyl)-1H-pyrazol-3-yl]-propionamide]  0.237 µM
3. CC(C)CC(C(=O)Nc1ccn(C[C@@H](O)CO)n1)n1ncc(Oc2c(F)cccc2F)cc1=O (stereo partly drawn) [Example 61, 2-[4-(2,6-Difluoro-phenoxy)-6-oxo-6H-pyridazin-1-yl]-4-methyl-pentanoic acid [1-((R)-2,3-dihydroxy-propyl)-1H-pyrazol-3-yl]-amide]  0.383 µM
4. CCC(CC)CC(C(=O)Nc1ccn(CCO)n1)n1ncc(Oc2c(F)cccc2F)cc1=O (stereo not shown) [Example 54, 2-[4-(2,6-Difluoro-phenoxy)-6-oxo-6H-pyridazin-1-yl]-4-ethyl-hexanoic acid [1-(2-hydroxy-ethyl)-1H-pyrazol-3-yl]-amide]  0.544 µM
5. O=C(O)c1ccc(NC(=O)[C@@H](CC2CCCC2)n2ncc(Oc3ccccc3F)cc2=O)nc1 [Example 75B, 6-{(R)-3-Cyclopentyl-2-[4-(2-fluoro-phenoxy)-6-oxo-6H-pyridazin-1-yl]-propionylamino}-nicotinic acid]  0.796 µM
6. CC(C)(O)Cn1ccc(NC(=O)C(CC2CCCC2)n2ncc(Oc3ccccc3C3CCCCC3)cc2=O)n1 (stereo not shown) [Example 21, 2-[4-(2-Cyclohexyl-phenoxy)-6-oxo-6H-pyridazin-1-yl]-3-cyclopentyl-N-[1-(2-hydroxy-2-methyl-propyl)-1H-pyrazol-3-yl]-propionamide]  0.873 µM
7. Cc1cccc(Oc2cnn(C(CC3CCCC3)C(=O)Nc3ccn(C[C@@H](O)CO)n3)c(=O)c2)n1 (stereo partly drawn) [Example 99, 3-Cyclopentyl-N-[1-((R)-2,3-dihydroxy-propyl)-1H-pyrazol-3-yl]-2-[4-(6-methyl-pyridin-2-yloxy)-6-oxo-6H-pyridazin-1-yl]-propionamide]  1.277 µM
8. Cc1ncccc1Oc1cnn(C(CC2CCCC2)C(=O)Nc2ccn(CC(C)(C)O)n2)c(=O)c1 (stereo not shown) [Example 25, 3-Cyclopentyl-N-[1-(2-hydroxy-2-methyl-propyl)-1H-pyrazol-3-yl]-2-[4-(2-methyl-pyridin-3-yloxy)-6-oxo-6H-pyridazin-1-yl]-propionamide]  1.773 µM
9. CC(C)(O)Cn1ccc(NC(=O)C(CC2CCCC2)n2ncc(Oc3cccnc3)cc2=O)n1 (stereo not shown) [Example 28, 3-Cyclopentyl-N-[1-(2-hydroxy-2-methyl-propyl)-1H-pyrazol-3-yl]-2-[6-oxo-4-(pyridin-3-yloxy)-6H-pyridazin-1-yl]-propionamide]  1.925 µM
10. CC(C)(O)Cn1ccc(NC(=O)C(CC2CCCC2)n2ncc(Oc3ccccc3C(=O)N3CCCC3)cc2=O)n1 (stereo not shown) [Example 41, 3-Cyclopentyl-N-[1-(2-hydroxy-2-methyl-propyl)-1H-pyrazol-3-yl]-2-{6-oxo-4-[2-(pyrrolidine-1-carbonyl)-phenoxy]-6H-pyridazin-1-yl}-propionamide]  8.414 µM
